In patent US8809498B2, “Pepstatin A derivatives” (priority 2008, dated 2014):
Non-standard residues stand in square brackets, D forms with d. Residues, ends and D or L forms follow the SMILES beside them. *: point of attachment. Abu(4,4,4-F3) = N[C@@H](CC(F)(F)F)C(=O)O; Phe(4-F) = N[C@@H](Cc1ccc(F)cc1)C(=O)O; Phe(4-Me) = Cc1ccc(C[C@H](N)C(=O)O)cc1; Sta = CC(C)C[C@H](N)[C@@H](O)CC(=O)O; Isovaleryl = CC(C)CC(=O)*; Nle = CCCC[C@H](N)C(=O)O

Experiments:
Format in all cases: biochemical
[1] = target: Sap1 of Candida albicans (Candida albicans, UniProt P0CY27); assay: Inhibition of proteolytic activity of Sap1 (resorufin-marked casein, fluorescence); conditions: for effectiveness against Sap1 compared with pepstatin A: versus pepstatin A
Sequence of Sap1 of Candida albicans (P0CY27 51-391): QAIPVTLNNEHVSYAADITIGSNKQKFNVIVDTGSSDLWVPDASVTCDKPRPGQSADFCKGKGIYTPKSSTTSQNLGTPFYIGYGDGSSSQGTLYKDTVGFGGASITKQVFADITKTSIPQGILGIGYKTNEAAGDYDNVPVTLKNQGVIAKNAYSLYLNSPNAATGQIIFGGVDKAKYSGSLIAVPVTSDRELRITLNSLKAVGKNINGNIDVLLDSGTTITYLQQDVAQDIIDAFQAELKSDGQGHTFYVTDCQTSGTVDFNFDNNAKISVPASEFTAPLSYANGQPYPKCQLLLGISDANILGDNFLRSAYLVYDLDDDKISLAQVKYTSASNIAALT
Protocol: (§1) For this purpose, that inhibitor concentration was determined in vitro at which the proteolytic activity of the enzyme or its velocity of metabolizing a substrate, respectively, was reduced for 50%.
(§2) The proteolytic activity of the tested Saps was determined at the pH optimum of those Saps. Resorufin-marked casein was used as substrate. Proteolysis of casein can be detected by an increase in fluorescence due to released resorufin (a fluorescence marker) by proteolysis.
(§3) Sap1, Sap3 and Sap6 of Candida albicans were independently dissolved in 2-(N-morpholino)ethanesulfonic acid (MES) having a concentration of 10 mmol/l and a pH of 6.5 resulting in enzyme solutions having a Sap concentration of 100 mmol/l. After one hour incubation at room temperature, 80 μl of a substrate solution comprising resorufin-marked casein in a sodium citrate buffer having a concentration of 500 mmol/l and a pH of 3.5 (in case of Sap3), 4.5 (in case of Sap1) and 5.0 (in case of Sap6) were added to 20 μl of enzyme solution. The resulting Sap concentration was 5 nmol/l. The resulting casein concentration was chosen such that the Saps could work in excess of substrate. Different Sap inhibitors were added, resulting in a final inhibitor concentration of 1 nmol/1, 2 nmol/1, 5 nmol/1, 10 nmol/l, nmol/l or 50 nmol/l in each case. One enzyme-substrate sample was left without addition of inhibitor. All experiments were performed in triplicate.
(§4) The mixture of enzyme and substrate or of enzyme, substrate and inhibitor was incubated at 37° C. under agitation at 300 rpm (rounds per minute) for 60 min in each case. Afterwards, 20 μl of a trichloroacetic acid solution (30%, w/v) were added. The mixture was placed on ice for 5 minutes and centrifuged afterwards for 3 min at 6000 rpm. The supernatant was removed.
(§5) To carry out fluorescence measurements, 100 μl of the supernatant were mixed with 100 μl Tris-HCl (trishydroxymethylaminomethane-HCl) having a concentration of 1 mol/l and a pH of 10.0. The fluorescence of this mixture was measured directly after adding Tris-HCl using an excitation wavelength of 530 nm and an emission wavelength of 590 nm on a CytoFluor 2350 apparatus (Millipore, Bedford, Mass., USA), wherein sensitivity was set to 2 and bandwidth was set to 7.
(§6) The average of three independent fluorescence measurements was calculated. The fluorescence of enzyme without inhibitor (i.e. inhibitor concentration of 0 nmol/l) was set to 100% enzyme activity. The activity of inhibited enzyme was calculated accordingly from the fluorescence of inhibited enzyme with respect to fluorescence of enzyme without inhibitor. Finally, the enzyme activity was plotted against the inhibitor concentration and the IC50 value was determined.

[2] = target: Sap3 of Candida albicans (Candida albicans, UniProt P0CY29); assay: Inhibition of proteolytic activity of Sap3 (resorufin-marked casein, fluorescence)
Sequence of Sap3 of Candida albicans (P0CY29 59-398): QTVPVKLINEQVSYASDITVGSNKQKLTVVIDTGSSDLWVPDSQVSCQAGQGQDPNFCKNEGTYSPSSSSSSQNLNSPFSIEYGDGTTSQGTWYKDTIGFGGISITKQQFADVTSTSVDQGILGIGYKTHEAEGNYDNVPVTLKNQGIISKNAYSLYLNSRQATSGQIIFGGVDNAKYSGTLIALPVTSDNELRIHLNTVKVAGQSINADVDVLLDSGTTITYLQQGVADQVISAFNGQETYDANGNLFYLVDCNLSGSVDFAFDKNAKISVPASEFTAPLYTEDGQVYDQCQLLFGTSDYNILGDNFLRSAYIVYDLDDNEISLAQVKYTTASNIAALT
Protocol: as §1, §2, §3, §4, §5, §6

[3] = target: Sap5 (Candida albicans, UniProt P43094); assay: Inhibition of proteolytic activity of Sap5
Sequence of Sap5 (P43094 77-418): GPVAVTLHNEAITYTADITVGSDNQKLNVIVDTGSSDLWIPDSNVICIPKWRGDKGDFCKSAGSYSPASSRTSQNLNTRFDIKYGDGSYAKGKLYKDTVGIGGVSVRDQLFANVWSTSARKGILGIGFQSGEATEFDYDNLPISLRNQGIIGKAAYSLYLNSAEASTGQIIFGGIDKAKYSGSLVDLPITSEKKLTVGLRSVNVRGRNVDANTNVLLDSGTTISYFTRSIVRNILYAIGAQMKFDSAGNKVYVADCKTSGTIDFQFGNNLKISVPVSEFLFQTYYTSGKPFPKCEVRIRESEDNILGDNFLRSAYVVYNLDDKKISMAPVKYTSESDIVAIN
Protocol: as §1, §2, §4, §5, §6

[4] = target: Sap6 of Candida albicans (Candida albicans, UniProt Q5AC08); assay: Inhibition of proteolytic activity of Sap6 (resorufin-marked casein, fluorescence)
Sequence of Sap6 of Candida albicans (Q5AC08 77-418): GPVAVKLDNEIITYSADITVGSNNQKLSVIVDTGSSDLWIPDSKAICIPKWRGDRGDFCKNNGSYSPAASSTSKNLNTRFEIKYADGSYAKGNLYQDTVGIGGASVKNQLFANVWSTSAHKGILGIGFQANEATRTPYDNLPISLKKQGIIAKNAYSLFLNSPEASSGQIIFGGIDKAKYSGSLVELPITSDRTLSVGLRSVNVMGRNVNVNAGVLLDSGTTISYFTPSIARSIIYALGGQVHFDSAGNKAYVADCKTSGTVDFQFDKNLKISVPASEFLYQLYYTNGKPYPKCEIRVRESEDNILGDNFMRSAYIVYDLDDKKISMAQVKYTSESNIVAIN
Protocol: as §1, §2, §3, §4, §5, §6

Compound | IC50 [1] | IC50 [2] | IC50 [3] | IC50 [4] | effectiveness against Sap1 compared with pepstatin A [1] | effect on Sap 6 ([4]; versus pepstatin A)
CC(C)CC(=O)N[C@H](C(=O)N[C@@H](CCCCN)C(=O)N[C@@H](CC(C)C)[C@@H](O)CC(=O)N[C@@H](C)C(=O)N[C@@H](CC(C)C)[C@@H](O)CC(=O)O)C(C)C [P2(Lys)-pepstatin, (N-Iva-Val)-Lys-Sta-Ala-Sta] (Isovaleryl-VK[Sta]A[Sta]-OH) | > 0.5 µM | ~0.1 µM | ~0.02 µM | 0.05 µM | – | –
CCCC[C@H](NC(=O)[C@@H](NC(=O)CC(C)C)C(C)C)C(=O)N[C@@H](CC(C)C)[C@@H](O)CC(=O)N[C@@H](C)C(=O)N[C@@H](CC(C)C)[C@@H](O)CC(=O)O [P2(Nle)-pepstatin, (N-Iva-Val)-N/e-Sta-Ala-Sta] (Isovaleryl-V[Nle][Sta]A[Sta]-OH) | ~0.01 µM | < 0.005 µM | 0.01 µM | ~0.015 µM | – | –
CC(C)CC(=O)N[C@H](C(=O)N[C@@H](CC(F)(F)F)C(=O)N[C@@H](CC(C)C)[C@@H](O)CC(=O)N[C@@H](C)C(=O)N[C@@H](CC(C)C)[C@@H](O)CC(=O)O)C(C)C [P2(TfeGly)-pepstatin, (N-Iva-Val)-TfeGly-Sta-Ala-Sta] (Isovaleryl-V[Abu(4,4,4-F3)][Sta]A[Sta]-OH) | ~0.05 µM | < 0.005 µM | – | ~0.02 µM | – | –
CC(C)CC(=O)N[C@@H](CC(C)C)C(=O)N[C@H](C(=O)N[C@@H](CC(C)C)[C@@H](O)CC(=O)N[C@@H](C)C(=O)N[C@@H](CC(C)C)[C@@H](O)CC(=O)O)C(C)C [P3(Leu)-pepstatin, (N-Iva-Leu)-Val-Sta-Ala-Sta, reference compound] (Isovaleryl-LV[Sta]A[Sta]-OH) | > 0.5 µM | < 0.005 µM | – | > 0.5 µM | – | –
Cc1ccc(C[C@H](NC(=O)CC(C)C)C(=O)N[C@H](C(=O)N[C@@H](CC(C)C)[C@@H](O)CC(=O)N[C@@H](C)C(=O)N[C@@H](CC(C)C)[C@@H](O)CC(=O)O)C(C)C)cc1 [P3(MePhe)-pepstatin, (N-Iva-pMePhe)-Val-Sta-Ala-Sta] (Isovaleryl-[Phe(4-Me)]V[Sta]A[Sta]-OH) | ~0.01 µM | ~0.005 µM | – | ~0.02 µM | – | –
COc1ccc(C[C@H](NC(=O)CC(C)C)C(=O)N[C@H](C(=O)N[C@@H](CC(C)C)[C@@H](O)CC(=O)N[C@@H](C)C(=O)N[C@@H](CC(C)C)[C@@H](O)CC(=O)O)C(C)C)cc1 [P3(O—MeTyr)-pepstatin, (N-Iva-OMeTyr)-Val-Sta-Ala-Sta] (Isovaleryl-Y(Me)V[Sta]A[Sta]-OH) | > 0.5 µM | ~0.005 µM | – | ~0.01 µM | – | –
CC(C)CC(=O)N[C@@H](Cc1ccccc1)C(=O)N[C@H](C(=O)N[C@@H](CC(C)C)[C@@H](O)CC(=O)N[C@@H](C)C(=O)N[C@@H](CC(C)C)[C@@H](O)CC(=O)O)C(C)C [P3(Phe)-pepstatin, (N-Iva-Phe)-Val-Sta-Ala-Sta] (Isovaleryl-FV[Sta]A[Sta]-OH) | ~0.005 µM | < 0.005 µM | – | ~0.01 µM | more effective against Sap1 than pepstatin A itself | –
CC(C)CC(=O)N[C@@H](Cc1ccc(O)cc1)C(=O)N[C@H](C(=O)N[C@@H](CC(C)C)[C@@H](O)CC(=O)N[C@@H](C)C(=O)N[C@@H](CC(C)C)[C@@H](O)CC(=O)O)C(C)C [P3(Tyr)-pepstatin, (N-Iva-Tyr)-Val-Sta-Ala-Sta] (Isovaleryl-YV[Sta]A[Sta]-OH) | < 0.005 µM | < 0.005 µM | – | < 0.005 µM | more effective against Sap1 than pepstatin A itself | increased effects on Sap 6
CC(C)CC(=O)N[C@@H](Cc1ccc(F)cc1)C(=O)N[C@H](C(=O)N[C@@H](CC(C)C)[C@@H](O)CC(=O)N[C@@H](C)C(=O)N[C@@H](CC(C)C)[C@@H](O)CC(=O)O)C(C)C [P3(p-FPhe)-pepstatin, (N-Iva-pFPhe)-Val-Sta-Ala-Sta] (Isovaleryl-[Phe(4-F)]V[Sta]A[Sta]-OH) | < 0.005 µM | < 0.005 µM | – | ~0.01 µM | more effective against Sap1 than pepstatin A itself | –
CC(C)(C)NC(=O)[C@@H]1C[C@@H]2CCCC[C@@H]2CN1C[C@@H](O)[C@H](Cc1ccccc1)NC(=O)[C@H](CC(N)=O)NC(=O)c1ccc2ccccc2n1 [Saquinavir, reference compound] | ~50 µM | ~200 µM | – | > 312 µM | – | –
